Here are results for 5 compounds from ChEMBL document CHEMBL2157974, “Viridin analogs derived from steroidal building blocks” (Bioorg Med Chem Lett, 2012).

For orientation: logP means a log measure of how a compound divides between an organic and an aqueous phase. As a reminder, the IC50 is the point on the concentration scale where inhibition reaches its midpoint.

A short description of data set [1]: Lipophilicity, log P of the compound. In kind it is physicochemical. To be noted: octanol/water.
Another data set concerns MCF7. Kind of data set: Cytotoxicity against human MCF7 cells after 72 hrs by MTS/PMS assay. The data set is classed as functional, cell-based. To be noted: MCF7, 72 h.
Data set [2] concerns the target PI3-kinase p110-alpha/p85-alpha (Homo sapiens, UniProt P42336). Put plainly: Inhibition of human recombinant P110alpha/p85alpha using phosphatidyl inositol as substrate after 1 hr by ADP-Glo Kinase assay. The data set is classed as protein-complex assay.
A short description of data set [3]: Inhibition of PI3K.

Sequence of PI3-kinase p110-alpha/p85-alpha (P27986 whole entry): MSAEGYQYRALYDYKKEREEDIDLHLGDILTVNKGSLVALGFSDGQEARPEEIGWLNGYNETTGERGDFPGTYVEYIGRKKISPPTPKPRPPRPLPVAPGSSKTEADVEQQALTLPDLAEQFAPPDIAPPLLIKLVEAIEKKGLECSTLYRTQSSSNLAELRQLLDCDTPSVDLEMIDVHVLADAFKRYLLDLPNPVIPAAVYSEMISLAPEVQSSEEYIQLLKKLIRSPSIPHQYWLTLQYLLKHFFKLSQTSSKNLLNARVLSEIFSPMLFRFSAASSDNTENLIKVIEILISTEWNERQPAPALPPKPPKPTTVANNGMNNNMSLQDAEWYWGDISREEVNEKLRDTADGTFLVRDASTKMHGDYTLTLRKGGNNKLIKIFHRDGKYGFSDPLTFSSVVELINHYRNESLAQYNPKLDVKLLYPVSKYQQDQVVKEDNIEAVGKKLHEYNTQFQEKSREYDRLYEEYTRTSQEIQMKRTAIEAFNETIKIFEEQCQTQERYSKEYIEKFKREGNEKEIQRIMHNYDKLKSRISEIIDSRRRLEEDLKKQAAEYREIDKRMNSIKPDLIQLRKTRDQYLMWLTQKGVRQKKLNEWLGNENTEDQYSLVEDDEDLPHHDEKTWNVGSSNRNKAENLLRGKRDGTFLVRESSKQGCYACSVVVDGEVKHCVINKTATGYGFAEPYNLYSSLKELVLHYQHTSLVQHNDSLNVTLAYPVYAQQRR
Sequence of PI3-kinase p110-alpha/p85-alpha (P42336 whole entry): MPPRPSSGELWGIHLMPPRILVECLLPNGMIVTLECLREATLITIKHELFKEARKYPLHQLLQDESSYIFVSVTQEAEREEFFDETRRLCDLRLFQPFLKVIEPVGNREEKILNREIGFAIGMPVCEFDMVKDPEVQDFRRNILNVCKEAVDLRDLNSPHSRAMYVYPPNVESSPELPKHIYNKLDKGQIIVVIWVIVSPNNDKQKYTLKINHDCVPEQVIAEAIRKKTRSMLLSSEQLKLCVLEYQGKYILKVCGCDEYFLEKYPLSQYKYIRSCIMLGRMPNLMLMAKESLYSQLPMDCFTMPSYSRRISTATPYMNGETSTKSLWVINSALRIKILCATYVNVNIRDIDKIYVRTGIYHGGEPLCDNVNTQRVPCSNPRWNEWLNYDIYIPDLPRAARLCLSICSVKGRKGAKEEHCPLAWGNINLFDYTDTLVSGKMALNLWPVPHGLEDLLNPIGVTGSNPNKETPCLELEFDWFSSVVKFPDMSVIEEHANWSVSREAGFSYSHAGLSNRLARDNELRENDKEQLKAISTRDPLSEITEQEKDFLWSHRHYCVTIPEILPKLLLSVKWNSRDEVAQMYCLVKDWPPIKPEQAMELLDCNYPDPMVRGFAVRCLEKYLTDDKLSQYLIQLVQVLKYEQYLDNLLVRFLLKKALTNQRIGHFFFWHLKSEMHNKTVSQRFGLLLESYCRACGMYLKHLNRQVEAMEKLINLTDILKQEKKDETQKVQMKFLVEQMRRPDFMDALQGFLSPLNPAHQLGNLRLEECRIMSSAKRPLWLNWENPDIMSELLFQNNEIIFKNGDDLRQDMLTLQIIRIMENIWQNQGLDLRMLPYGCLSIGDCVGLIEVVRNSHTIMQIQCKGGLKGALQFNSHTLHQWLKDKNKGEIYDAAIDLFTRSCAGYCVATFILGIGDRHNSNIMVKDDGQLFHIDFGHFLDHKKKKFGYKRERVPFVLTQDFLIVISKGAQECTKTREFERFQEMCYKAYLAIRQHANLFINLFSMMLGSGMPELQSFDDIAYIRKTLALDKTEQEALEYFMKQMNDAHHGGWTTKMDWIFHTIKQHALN

With `C[C@]12CCC(=O)c3coc(c31)C(=O)[C@@H]1[C@@H]2CC[C@]2(C)C(=O)CC[C@@H]12`, in data set [1], the log partition coefficient (logP) came to 2.65. Moreover, the IC50 in the data set with MCF7 came out at 22.9 µM; in data set [2], 0.339 µM.

On to `C=CCN/C=C1/C(=O)CC[C@@]2(C)C1=C(O)C(=O)[C@@H]1[C@@H]2CC[C@]2(C)C(=O)CC[C@@H]12`, for which the IC50 was 37.7 µM with MCF7 and 0.271 µM in data set [2].

Turning to `C[C@]12CCC(=O)c3coc(c31)C(=O)C[C@@H]2O` (racemic), the logP in data set [1] came to 0.58. Moreover, the IC50 is above 100 µM with MCF7 and 0.178 µM in data set [2].

On to `CO[C@@H]1C(=O)c2coc3c2[C@@](C)(c2ccc4c(c2C3=O)CCC4=O)[C@@H]1O` [VIRIDIN], for which, in data set [3], 0.002 µM corresponded to half-maximal inhibition (IC50).

With `COC[C@H]1OC(=O)c2coc3c2[C@@]1(C)C1=C(C3=O)[C@@H]2CCC(=O)[C@@]2(C)C[C@H]1OC(C)=O` [WORTMANNIN], the figures for the IC50 (in the data set with MCF7; in data set [3]) were above 100 µM and 0.002 µM, respectively.
